From US20030083366A1, “Combination chemotherapy” (priority 2001, published 2003)
Several values for one entry are separate records, joined by “and”; a condition that tells them apart may be missing. Equal values may be shown once. Read-outs that look alike come from different tables or passages of the source.

Assays:
[1] = Route of elimination of radiolabeled drug, rats; format: in vivo; conditions: within 24 hours
Protocol: (§1) Mass balance/route of elimination studies have not been conducted in humans. Animal studies indicate that the principal route of elimination is via renal excretion, with 80% and 62% of radiolabeled drug appearing in the urine of monkeys and rats, respectively, within 24 hours.

[2] = Phase 1 study, once daily high-dose 5-day schedule, relapsed acute leukemia or other hematologic malignancy; format: in vivo
Protocol: An additional Phase 1 study was conducted in patients with relapsed acute leukemia or other hematologic malignancy using a once daily high-dose 5-day dosing schedule. […] Hematologic toxicities cannot be assessed in this patient population. Two patients with AML developed tumor lysis syndrome, resulting in one death. Transient decreases in peripheral white blood cell counts were noted.

[3] = Pharmacokinetics and food effect in the solid tumor Phase 1 study; format: in vivo, patients; conditions: oral, after a fasting period
[4] = Route of elimination of radiolabeled drug, monkeys; format: in vivo; conditions: within 24 hours
Protocol: as §1

[5] = LC-12 squamous cell lung carcinoma implanted subcutaneously in BALB/C mice, chemotherapy study; format: in vivo, female BALB/C mice; conditions: female, mouse, in vivo, tumor-bearing BALB/C mice
Protocol: (§2) The synergistic combinations provided by this invention have been evaluated in standard chemotherapy studies using female BALB/C mice weighing 18 to 20 g. The test mice were obtained from Charles River Laboratories, Wilmington, Mass. On Day 0 of the test, each mouse was surgically implanted (subcutaneously) with a fragment of LC-12 squamous cell lung carcinoma tumor weighing approximately 30 to 60 mg. The tumor fragments were implanted using a 12 gauge trocar. The mice were weighed weekly, and tumor size (width and length in mm) were measured two times each week with standard calipers. Tumor mass for each animal was calculated according to the formula: [formula]
(§3) where “a” is width of the tumor in mm, and “b” is the length in mm. Evaluation of anticancer activity was established by the formula T-C, where “T” and “C” are the median time (in days) required for the treated and control (respectively) tumors to reach a predetermined size of about 750 mg (the “evaluation size”). Tumors generally reached size of about 150 to about 200 mg before drug dosing was initiated. Antitumor activity was assessed according to four parameters: (1) partial tumor response (PR); (2) complete tumor response (CR); (3) tumor-free survival (TF); and (4) tumor growth delay (TL). Tumor growth delay is expressed as a T-C value, where T is the median days required for the treatment group tumors to reach a predetermined size (e.g., 750 mg), and C is the median days for the control group tumors to reach this size. From the tumor growth delay value, the net log10 tumor cell kill is calculated as follows:
(§4) Net log10 tumor cell kill=[(T−C)−Rx]/3.32×Td
(§5) where Td is the days for the tumor mass to double, and Rx is the total days of treatment. Td is estimated from the best fit straight line from a log-linear plot of the control-group tumors in exponential growth (200 to 800 mg range). The conversion of the T-C values to log10 cell kill is possible because the Td for tumors regrowing after treatment is approximately the same as that for untreated control mice. The net log10 kill value normalizes the efficacy data for tumor growth during treatment regimens of varied duration and provides an estimate of whether an actual regression of the tumor occurred. Positive values indicate that an actual reduction of tumor burden occurred. Negative values indicate the tumor actually grew (although possibly more slowly) during treatment. Tumor-free survivors were excluded from these calculations.
(§6) Acetyldinaline was suspended in 0.5% aqueous methyl cellulose and administered orally at various dosages in 0.5 mL volumes. Docetaxel was dissolved in 5% ethanol, 5% Tween 80, 90% aqueous saline and administered intravenously at various dosage levels in 0.2 mL injections.
(§7) The animals were divided into groups of 10 animals each. One group served as controls and received vehicle alone, with no drug treatments. Two groups received oral doses of acetyldinaline alone at a specified level (as shown in Table 3) of active drug (30 mg/kg and 60 mg/kg). […] Three groups received docetaxel alone at doses of 3.5, 5.6, and 9.0 mg/kg. Two groups received acetyldinaline at the recited doses, in combination with 3.5 mg/kg of docetaxel, and another two groups received acetyldinaline at the recited doses in combination with docetaxel at […], and the final two groups received acetyldinaline at the recited doses, in combination until 9.0 mg/kg of docetaxel.

[6] = test system: LC-12 squamous cell lung carcinoma tumor; test: as above; format: in vivo, female BALB/C mice; conditions: for antitumor effect of the agents individually: single agent
Protocol: as §2, §3, §4, §5, §6, §7

[7] = Phase 1 dose-escalation study of CI-994 in solid tumor patients; format: in vivo
Protocol: In one such study, patients were treated using a dose-escalation scheme that increased both the daily dose and the duration of treatment. The majority of patients had received extensive prior chemotherapy. The maximum-tolerated dose (MTD) was 15 mg/m^2/day when the duration of treatment was 14 consecutive days. To allow more prolonged treatment, lower doses were studied. Using a schedule of 8 weeks of continuous daily therapy, followed by a 2-week ‘drug holiday’, the MTD was 8 mg/m^2/day. […] Blood counts tended to stabilize even with continued treatment and to recover quickly when treatment was stopped.

[8] = CI-994 30.0 mg/kg/injection oral, Days 11-13, 15-17, 19-21, alone
[9] = CI-994 60 mg/kg/day (MTD), alone
[10] = CI-994 60.0 mg/kg/injection oral, Days 11-13, 15-17, 19-21, alone
[11] = Docetaxel 3.5 mg/kg/injection iv, Days 11, 15, 19, alone
[12] = Docetaxel 5.6 mg/kg/injection iv, Days 11, 15, 19, alone
[13] = Docetaxel 9.0 mg/kg/injection iv, Days 11, 15, 19, alone

Compound: CC(=O)Nc1ccc(C(=O)Nc2ccccc2N)cc1 [CI-994, 4-acetylamino-N-(2′-aminophenyl)-benzamide]
- Clinical benefit (8 mg/m^2 given orally daily): reported in patients with renal cell cancer
- Objective responses (8 mg/m^2 given orally daily): seen in patients with nonsmall cell lung cancer
- dose-limiting toxicity (in vivo, po): Thrombocytopenia
- radiolabeled drug appearing in the urine [1]: 62%
- Other adverse events ([2]; in vivo): nausea, vomiting, hypotension resulting from dehydration, hypocalcemia, headache
- dose-limiting toxicity ([2]; in vivo): acute CNS toxicity manifested as sedation and somnolence
- MTD ([2]; once daily high-dose 5-day dosing schedule): 135 mg/m^2/day
- half-life ([3]; human, plasma, preliminary results, read-out: terminal elimination half-life (converted)): ~15 h
- maximum plasma CI-994 concentrations with increasing dose levels [3]: less than dose-proportional
- terminal elimination half-life and apparent clearance rate versus dose [3]: independent of the dose administered
- radiolabeled drug appearing in the urine [4]: 80%
- MTD ([5]; oral): 60 mg/kg/day
- partial tumor response ([6]; CI-994 30 mg/kg/day (50% its MTD), alone): 20%
- % Weight Change [6, 8]: −5.5%
- Net Log10 Kill [6, 8]: −0.5 log10
- Non-specific Deaths [6, 8]: 0/10
- PR (partial response) [6, 8]: 2/10
- T − C (tumor growth delay to 750 mg) [6, 8]: 4.6 days
- Tumor Free (Day 105) [6, 8]: 0/10
- CR (complete response) ([6]; CI-994 30.0 mg/kg/injection oral, Days 11-13, 15-17, 19-21, alone, 30 mg/kg): no complete tumor responses and 0/10
- complete tumor response rate [6, 9]: 40%
- partial tumor response [6, 9]: 10%
- mice tumor free when the study ended ([6]; CI-994 60 mg/kg/day (MTD), alone, 105 days after the last CI-994 treatment): 30%
- % Weight Change [6, 10]: −10.5%
- CR (complete response) [6, 10]: 4/10
- Net Log10 Kill [6, 10]: −0.3 log10
- Non-specific Deaths [6, 10]: 0/10
- PR (partial response) [6, 10]: 1/10
- T − C (tumor growth delay to 750 mg) [6, 10]: 4.9 days
- Tumor Free (Day 105) [6, 10]: 3/10
- antitumor effect of the agents individually [6]: only modest antitumor efforts
- MTD ([7]; 8 weeks of continuous daily therapy followed by a 2-week drug holiday): 8 mg/m^2/day
- Responses ([7]; Phase 1 patients): one partial response in a heavily pretreated patient with NSCLC and a minor response in one patient each with renal cell cancer and NSCLC
- Other toxicities ([7]; human, in vivo): nausea, vomiting, diarrhea, anorexia, fatigue, mucositis, headache, dehydration, and increases in liver and renal function test values
- cumulative toxicity ([7]; human, in vivo): no evidence of cumulative toxicity
- dose-limiting toxicity ([7]; human, in vivo): thrombocytopenia or neutropenia
- time of occurrence of dose-limiting toxicity after start of therapy ([7]; human, in vivo): ≤ 1 month
- maximum-tolerated dose (MTD) ([7]; treatment for 14 consecutive days, patients mostly with extensive prior chemotherapy): 15 mg/m^2/day

Compound: CC(=O)O[C@@]12CO[C@@H]1C[C@H](O)[C@@]1(C)C(=O)[C@H](O)C3=C(C)[C@@H](OC(=O)[C@H](O)[C@@H](NC(=O)OC(C)(C)C)c4ccccc4)C[C@@](O)([C@@H](OC(=O)c4ccccc4)[C@H]21)C3(C)C [Docetaxel]
- MTD ([5]; intravenous, read-out: MTD of docetaxel): 9 mg/kg/day
- % Weight Change [6, 11]: −7.3%
- CR (complete response) [6, 11]: 0/10
- Non-specific Deaths [6, 11]: 0/10
- PR (partial response) [6, 11]: 0/10
- T − C (tumor growth delay to 750 mg) [6, 11]: -1.7 days
- Tumor Free (Day 105) [6, 11]: 0/10
- % Weight Change [6, 12]: −11.7%
- CR (complete response) [6, 12]: 0/10
- Non-specific Deaths [6, 12]: 1/10
- PR (partial response) [6, 12]: 1/10
- T − C (tumor growth delay to 750 mg) [6, 12]: -0.5 days
- Tumor Free (Day 105) [6, 12]: 0/10
- % Weight Change [6, 13]: −16.7%
- CR (complete response) [6, 13]: 0/10
- Net Log10 Kill [6, 13]: −0.2 log10
- Non-specific Deaths [6, 13]: 1/10
- PR (partial response) [6, 13]: 3/10
- T − C (tumor growth delay to 750 mg) [6, 13]: 3.3 days
- Tumor Free (Day 105) [6, 13]: 0/10
- CR (complete response) ([6]; Docetaxel 9.0 mg/kg/injection iv, Days 11, 15, 19, alone, listed as docetaxel): no complete tumor responses
- partial tumor responses ([6]; docetaxel 9 mg/kg/day (MTD), alone): 30%
- antitumor effect of the agents individually [6]: only modest antitumor efforts
